Results taken from ChEMBL document CHEMBL1149962, “Structural and stereochemical requirements of time-dependent inactivators of the interleukin-1 converting enzyme” (Bioorg Med Chem Lett, 1995).

The molecules below were run against T1, Caspase-1 (Homo sapiens) (UniProt P29466) (assay: Inhibition of IL-1 beta converting enzyme).
T1 sequence (whole entry): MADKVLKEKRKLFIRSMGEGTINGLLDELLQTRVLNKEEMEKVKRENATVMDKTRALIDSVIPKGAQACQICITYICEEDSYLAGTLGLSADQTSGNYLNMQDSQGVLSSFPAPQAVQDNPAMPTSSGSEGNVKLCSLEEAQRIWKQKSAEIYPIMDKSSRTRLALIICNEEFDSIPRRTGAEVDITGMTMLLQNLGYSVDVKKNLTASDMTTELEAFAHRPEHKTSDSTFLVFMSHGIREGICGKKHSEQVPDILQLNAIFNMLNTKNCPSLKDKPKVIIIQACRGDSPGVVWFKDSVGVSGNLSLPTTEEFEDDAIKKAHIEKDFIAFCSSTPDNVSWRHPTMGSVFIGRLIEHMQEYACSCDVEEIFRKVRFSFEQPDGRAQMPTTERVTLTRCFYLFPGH

k obs / 1 [M⁻¹ s⁻¹]	Compound
< 1000	C[C@@H](NC(=O)OCc1ccccc1)C(=O)N[C@@H](CC(=O)O)C(=O)COC(=O)c1c(Cl)cccc1Cl
< 1000	C[C@@H](C(=O)O)[C@H](NC(=O)OCc1ccccc1)C(=O)COC(=O)c1c(Cl)cccc1Cl
< 1000	O=C(O)CCC[C@H](NC(=O)OCc1ccccc1)C(=O)COC(=O)c1c(Cl)cccc1Cl
< 1000	C[C@H](C(=O)O)[C@H](NC(=O)OCc1ccccc1)C(=O)COC(=O)c1c(Cl)cccc1Cl
41000	CC(C)[C@H](NC(=O)OCc1ccccc1)C(=O)N[C@@H](CC(=O)O)C(=O)COC(=O)c1c(Cl)cccc1Cl
7400	O=C(O)C[C@H](NC(=O)OCc1ccccc1)C(=O)COC(=O)c1c(Cl)cccc1Cl
< 1000	O=C(O)C[C@@H](CC(=O)COC(=O)c1c(Cl)cccc1Cl)NC(=O)OCc1ccccc1

More lines, now with the values behind:

Compound	k obs / 1 [M⁻¹ s⁻¹]
O=C(N[C@@H](Cc1nnn[nH]1)C(=O)COC(=O)c1c(Cl)cccc1Cl)OCc1ccccc1	< 1000
O=C(O)C[C@@H](C(=O)COC(=O)c1c(Cl)cccc1Cl)C(=O)NCCc1ccccc1	< 1000
O=C(O)C[C@H](NC(=O)OCc1ccccc1)C(O)COC(=O)c1c(Cl)cccc1Cl (stereo partly specified)	< 1000
O=C(O)C[C@@H](CCOC(=O)c1c(Cl)cccc1Cl)NC(=O)OCc1ccccc1	< 1000
COC(=O)NCC(=O)N[C@@H](CC(=O)O)C(=O)COC(=O)c1c(Cl)cccc1Cl	< 1000
O=C(O)C[C@H](NC(=O)OCc1ccccc1)C(=O)CSc1c(Cl)cccc1Cl	< 1000
O=C(O)C[C@H](NC(=O)OCc1ccccc1)C(=O)COc1c(Cl)cccc1Cl	< 1000
CN(C(=O)OCc1ccccc1)[C@@H](CC(=O)O)C(=O)COC(=O)c1c(Cl)cccc1Cl	< 1000
COC(=O)N[C@@H](Cc1c[nH]cn1)C(=O)N[C@@H](CC(=O)O)C(=O)COC(=O)c1c(Cl)cccc1Cl	2200
O=C(O)C[C@H](OC(=O)OCc1ccccc1)C(=O)COC(=O)c1c(Cl)cccc1Cl	< 1000
C[C@H](NC(=O)OCc1ccccc1)C(=O)N[C@@H](C)C(=O)N[C@@H](CC(=O)O)C(=O)COC(=O)c1c(Cl)cccc1Cl	116000
COC(=O)N[C@@H](C)C(=O)N[C@@H](CC(=O)O)C(=O)COC(=O)c1c(Cl)cccc1Cl	7000
C[C@H](NC(=O)[C@H](Cc1ccccc1)NC(=O)OCc1ccccc1)C(=O)N[C@@H](CC(=O)O)C(=O)COC(=O)c1c(Cl)cccc1Cl	233000
C[C@H](NC(=O)[C@@H](C)NC(=O)OCc1ccccc1)C(=O)N[C@@H](CC(=O)O)C(=O)COC(=O)c1c(Cl)cccc1Cl	10000
COC(=O)N[C@H](C(=O)N[C@@H](CC(=O)O)C(=O)COC(=O)c1c(Cl)cccc1Cl)C(C)C	4900
COC(=O)N[C@@H](Cc1cccs1)C(=O)N[C@@H](CC(=O)O)C(=O)COC(=O)c1c(Cl)cccc1Cl	2500

These molecules were tested against T1, Caspase-1 (Homo sapiens) (assay: k obs/[I] against Interleukin-1-beta Converting enzyme (ICE) was determined.).

k obs / 1 [M⁻¹ s⁻¹]	Compound
< 1000	O=C(O)CC[C@H](NC(=O)OCc1ccccc1)C(=O)COC(=O)c1c(Cl)cccc1Cl

Each molecule was assayed against T2, Caspase-1 (Homo sapiens, UniProt P29466) (assay: Binding affinity against IL-1 beta converting enzyme).
T2 sequence (P29466 whole entry): T1 sequence (whole entry)

Ki [nM]	Compound
15	CC(C)[C@H](NC(=O)OCc1ccccc1)C(=O)N[C@@H](C)C(=O)N[C@@H](C=O)CC(=O)O
15	CC(C)[C@H](NC(=O)OCc1ccccc1)C(=O)N[C@@H](C)C(=O)N[C@H](C=O)CC(=O)O
